According to patent US8906944B2, “Compounds as tyrosine kinase modulators” (Allergan, Inc., priority 2009, dated 2014):

Legend:
Format in all cases: biochemical
[1] = target: VEGFR1 (Homo sapiens, UniProt P17948); assay: VEGFR1 enzyme assay; settings: Table IV, amide or urea linker
[2] = target: PDGFβ (Homo sapiens, UniProt P09619); assay: PDGFβ enzyme assay; settings: Table IV, amide or urea linker
[3] = target: T1, human VEGF receptor (VEGFR-2) (Homo sapiens, UniProt P35968); assay: VEGFR2 kinase assay; settings: His-VEGFR-2 cytoplasmic domain, 3.6 μM ATP; Table IV, amide or urea linker; read-out: VEGFR2 Enzyme IC50
T1 construct: The cytoplasmic domain of the human VEGF receptor (VEGFR-2) was expressed; His; made in house; host or cells: insect cells (baculovirus)
Experimental: The cytoplasmic domain of the human VEGF receptor (VEGFR-2) was expressed as a Histidine-tagged fusion protein following infection of insect cells using an H is engineered baculovirus. […] Kinase assays were performed in 96 well microtiter plates that were coated overnight with 30 µg of poly-Glu-Tyr (4:1) in 10 mM Phosphate Buffered Saline (PBS), pH 7.2-7.4. The plates were incubated with 1% BSA and then washed four times with PBS prior to starting the reaction. Reactions were carried out in 120 µL reaction volumes containing 3.6 µM ATP in kinase buffer (50 mM Hepes buffer pH 7.4, 20 mM MgCl2, 0.1 mM MnCl2 and 0.2 mM Na3 VO4). […] Reactions were initiated by the addition 0.5 ng of purified protein. Following a ten minute incubation at 25 degree. […] IC50 values for compound inhibition were calculated directly from graphs of optical density (arbitrary units) versus compound concentration following subtraction of blank values.

T1 sequence (P35968 786-1356 limits assumed): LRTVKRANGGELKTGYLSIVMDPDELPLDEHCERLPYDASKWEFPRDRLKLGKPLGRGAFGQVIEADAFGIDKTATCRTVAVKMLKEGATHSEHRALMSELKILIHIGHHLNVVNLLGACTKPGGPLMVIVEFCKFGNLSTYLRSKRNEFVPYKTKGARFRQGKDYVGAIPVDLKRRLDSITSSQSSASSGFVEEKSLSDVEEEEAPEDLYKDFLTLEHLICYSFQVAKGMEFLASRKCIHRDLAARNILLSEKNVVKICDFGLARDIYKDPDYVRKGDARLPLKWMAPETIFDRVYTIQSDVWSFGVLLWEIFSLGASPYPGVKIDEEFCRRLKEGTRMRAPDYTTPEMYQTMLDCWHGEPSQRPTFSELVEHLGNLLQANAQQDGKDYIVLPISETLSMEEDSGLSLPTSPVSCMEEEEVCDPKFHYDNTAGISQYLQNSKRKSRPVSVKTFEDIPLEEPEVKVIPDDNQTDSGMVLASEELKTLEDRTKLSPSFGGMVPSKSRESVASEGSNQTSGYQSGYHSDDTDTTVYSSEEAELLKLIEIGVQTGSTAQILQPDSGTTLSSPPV
Sequence of PDGFβ (P09619 33-1106): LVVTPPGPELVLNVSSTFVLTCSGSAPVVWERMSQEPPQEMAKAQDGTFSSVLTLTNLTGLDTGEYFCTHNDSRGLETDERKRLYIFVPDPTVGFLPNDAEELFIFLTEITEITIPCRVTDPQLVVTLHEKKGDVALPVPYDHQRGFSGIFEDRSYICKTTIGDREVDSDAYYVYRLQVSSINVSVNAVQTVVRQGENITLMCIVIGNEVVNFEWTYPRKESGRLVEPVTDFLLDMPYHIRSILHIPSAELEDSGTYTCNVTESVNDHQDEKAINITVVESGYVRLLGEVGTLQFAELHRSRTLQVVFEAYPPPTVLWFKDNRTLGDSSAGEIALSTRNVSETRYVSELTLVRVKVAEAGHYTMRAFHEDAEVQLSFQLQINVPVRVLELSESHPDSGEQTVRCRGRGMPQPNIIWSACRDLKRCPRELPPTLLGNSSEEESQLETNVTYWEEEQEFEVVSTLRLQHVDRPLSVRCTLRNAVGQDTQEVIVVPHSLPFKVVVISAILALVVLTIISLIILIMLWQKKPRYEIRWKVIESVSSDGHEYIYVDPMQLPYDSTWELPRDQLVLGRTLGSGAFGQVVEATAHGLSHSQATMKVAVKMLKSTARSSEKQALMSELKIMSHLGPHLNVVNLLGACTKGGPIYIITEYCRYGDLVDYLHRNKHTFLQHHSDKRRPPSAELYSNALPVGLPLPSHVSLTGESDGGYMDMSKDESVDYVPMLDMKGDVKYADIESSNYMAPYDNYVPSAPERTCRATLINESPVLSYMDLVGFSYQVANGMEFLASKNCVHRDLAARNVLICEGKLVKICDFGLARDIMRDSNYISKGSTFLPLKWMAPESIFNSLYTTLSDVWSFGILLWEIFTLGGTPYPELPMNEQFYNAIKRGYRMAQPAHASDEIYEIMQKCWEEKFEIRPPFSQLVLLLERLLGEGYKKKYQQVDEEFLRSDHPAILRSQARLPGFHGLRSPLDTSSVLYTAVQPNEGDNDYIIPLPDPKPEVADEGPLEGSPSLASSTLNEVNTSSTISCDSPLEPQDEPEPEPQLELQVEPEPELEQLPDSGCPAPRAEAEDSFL
Sequence of VEGFR1 (P17948 27-1338, species assumed): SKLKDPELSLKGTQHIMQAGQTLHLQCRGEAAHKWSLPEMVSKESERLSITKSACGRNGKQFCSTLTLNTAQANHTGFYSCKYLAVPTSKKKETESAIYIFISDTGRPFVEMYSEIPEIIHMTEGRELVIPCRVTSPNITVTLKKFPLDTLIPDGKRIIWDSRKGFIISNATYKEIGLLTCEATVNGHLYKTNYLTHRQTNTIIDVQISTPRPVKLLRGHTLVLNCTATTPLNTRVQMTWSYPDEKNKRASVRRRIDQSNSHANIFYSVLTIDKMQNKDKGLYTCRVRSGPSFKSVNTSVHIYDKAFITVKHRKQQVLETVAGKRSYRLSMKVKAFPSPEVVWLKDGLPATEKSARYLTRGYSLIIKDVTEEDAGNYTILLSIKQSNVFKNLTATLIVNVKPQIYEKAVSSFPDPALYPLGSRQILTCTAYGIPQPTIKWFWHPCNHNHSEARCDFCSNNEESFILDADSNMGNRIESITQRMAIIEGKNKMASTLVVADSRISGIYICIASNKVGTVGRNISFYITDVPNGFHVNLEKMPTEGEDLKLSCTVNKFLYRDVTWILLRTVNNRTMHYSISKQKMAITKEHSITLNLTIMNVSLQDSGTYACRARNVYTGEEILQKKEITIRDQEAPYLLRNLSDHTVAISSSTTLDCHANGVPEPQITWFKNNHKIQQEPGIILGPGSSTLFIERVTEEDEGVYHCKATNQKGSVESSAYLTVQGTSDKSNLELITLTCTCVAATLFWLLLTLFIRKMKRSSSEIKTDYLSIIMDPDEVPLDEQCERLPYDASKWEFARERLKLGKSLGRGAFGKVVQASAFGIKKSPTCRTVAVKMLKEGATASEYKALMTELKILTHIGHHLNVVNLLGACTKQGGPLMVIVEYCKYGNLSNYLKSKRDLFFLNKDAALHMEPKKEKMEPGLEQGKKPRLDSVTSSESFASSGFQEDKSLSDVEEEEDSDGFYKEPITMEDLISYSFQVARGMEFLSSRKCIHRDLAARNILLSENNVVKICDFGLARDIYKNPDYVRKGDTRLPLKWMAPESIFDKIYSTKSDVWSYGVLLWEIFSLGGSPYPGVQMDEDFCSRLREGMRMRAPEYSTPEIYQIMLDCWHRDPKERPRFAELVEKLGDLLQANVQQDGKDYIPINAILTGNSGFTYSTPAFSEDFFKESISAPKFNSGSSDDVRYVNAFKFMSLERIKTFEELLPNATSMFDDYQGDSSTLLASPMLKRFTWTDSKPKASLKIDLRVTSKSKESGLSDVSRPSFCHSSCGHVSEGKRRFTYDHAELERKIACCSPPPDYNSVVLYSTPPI

| IC50 [1] | IC50 [2] | IC50 [3] | SMILES |
| --- | --- | --- | --- |
| 6 nM | 11 nM | 5 nM | Cc1ccc(F)c(NC(=O)Nc2ccc(Oc3ccnc(-c4cc(C(=O)NCCCCC(=O)O)c[nH]4)c3)cc2)c1 [Example 166, 5-{[(5-{4-[4-({[(2-fluoro-5-methylphenyl)amino]carbonyl}amino)phenoxy]pyridin-2-yl}-1H-pyrrol-3-yl)carbonyl]amino}pentanoic acid] |
| 21 nM | 41 nM | 36 nM | Cc1ccc(F)c(NC(=O)c2ccc(F)c(Oc3ccnc(-c4cc(C(=O)NCCC(=O)O)c[nH]4)c3)c2)c1 [Example 258, 3-[({5-[4-(2-fluoro-5-{[(2-fluoro-5-methylphenyl)amino]carbonyl}phenoxy)pyridin-2-yl]-1H-pyrrol-3-yl}carbonyl)amino]propanoic acid] |
| 25 nM | 21 nM | 15 nM | Cc1ccc(F)c(NC(=O)Nc2ccc(Oc3ccnc(-c4cc(C(=O)NCCCN5CCCC5C(=O)O)c[nH]4)c3)cc2)c1 (stereo not drawn) [Example 247, 1-(3-{[(5-{4-[4-({[(2-fluoro-5-methylphenyl)amino]carbonyl}amino)phenoxy]pyridin-2-yl}-1H-pyrrol-3-yl)carbonyl]amino}propyl)pyrrolidine-2-carboxylic acid] |
| 9 nM | 16 nM | 5 nM | Cc1ccc(F)c(NC(=O)Nc2ccc(Oc3ccnc(-c4cc(C(=O)N5CCN(CC(=O)O)CC5)c[nH]4)c3)cc2F)c1 [Example 218, {4-[(5-{4-[3-fluoro-4-({[(2-fluoro-5-methylphenyl)amino]carbonyl}amino)phenoxy]pyridin-2-yl}-1H-pyrrol-3-yl)carbonyl]piperazin-1-yl}acetic acid] |
|  | 42 nM | 8 nM | COC(=O)CCNC(=O)c1c[nH]c(-c2cc(Oc3ccc(NC(=O)Nc4cccc(C)c4)c(F)c3)ccn2)c1 [Example 174, methyl 3-{[(5-{4-[3-fluoro-4-({[(3-methylphenyl)amino]carbonyl}amino)phenoxy]pyridin-2-yl}-1H-pyrrol-3-yl)carbonyl]amino}propanoate] |
| 31 nM | 94 nM | 12 nM | Cc1ccc(F)c(NC(=O)c2ccc(F)c(Oc3ccnc(-c4cc(C(=O)NCCCO)c[nH]4)c3)c2)c1 [Example 244, 5-[4-(2-fluoro-5-{[(2-fluoro-5-methylphenyl)amino]carbonyl}phenoxy)pyridin-2-yl]-N-(3-hydroxypropyl)-1H-pyrrole-3-carboxamide] |
| 11 nM | 17 nM | 8 nM | Cc1ccc(F)c(NC(=O)Nc2ccc(Oc3ccnc(-c4cc(C(=O)NCCCC(=O)OCC(CO)(CO)CO)c[nH]4)c3)cc2)c1 [Example 234, 3-hydroxy-2,2-bis(hydroxymethyl)propyl 4-{[(5-{4-[4-({[(2-fluoro-5-methylphenyl)amino]carbonyl}amino)phenoxy]pyridin-2-yl}-1H-pyrrol-3-yl)carbonyl]amino}butanoate] |
| 24 nM | 167 nM | 55 nM | CCNC(=O)[C@H](CCC(=O)OC(C)(C)C)NC(=O)c1c[nH]c(-c2cc(Oc3cc(C(=O)Nc4cc(C)ccc4F)ccc3F)ccn2)c1 [Example 256, tert-butyl 5-(ethylamino)-4-[({5-[4-(2-fluoro-5-{[(2-fluoro-5-methylphenyl)amino]carbonyl}phenoxy)pyridin-2-yl]-1H-pyrrol-3-yl}carbonyl)amino]-5-oxopentanoate] |
| 7 nM | 19 nM | 9 nM | Cc1ccc(F)c(NC(=O)Nc2ccc(Oc3ccnc(-c4cc(C(=O)NCCCN5CCCC(CO)C5)c[nH]4)c3)cc2)c1 (stereo not drawn) [Example 160, 5-{4-[4-({[(2-fluoro-5-methylphenyl)amino]carbonyl}amino)phenoxy]pyridin-2-yl}-N-{3-[3-(hydroxymethyl)piperidin-1-yl]propyl}-1H-pyrrole-3-carboxamide] |
| 36 nM | 200 nM | 64 nM | Cc1ccc(F)c(NC(=O)c2ccc(F)c(Oc3ccnc(-c4cc(C(=O)NCCCNC(=O)OC(C)(C)C)c[nH]4)c3)c2)c1 [Example 253, tert-butyl {3-[({5-[4-(2-fluoro-5-{[(2-fluoro-5-methylphenyl)amino]carbonyl}phenoxy)pyridin-2-yl]-1H-pyrrol-3-yl}carbonyl)amino]propyl}carbamate] |
| 10 nM | 19 nM | 8 nM | COC(=O)CNCCCNC(=O)c1c[nH]c(-c2cc(Oc3ccc(NC(=O)Nc4cc(C)ccc4F)c(F)c3)ccn2)c1 [Example 196, methyl [(3-{[(5-{4-[3-fluoro-4-({[(2-fluoro-5-methylphenyl)amino]carbonyl}amino)phenoxy]pyridin-2-yl}-1H-pyrrol-3-yl)carbonyl]amino}propyl)amino]acetate] |
| 40 nM | 63 nM |  | Cc1ccc(F)c(NC(=O)Nc2ccc(Oc3ccnc(-c4cc(C(=O)N5CCC5)c[nH]4)c3)cc2)c1 [Example 185, 1-[4-({2-[4-(azetidin-1-ylcarbonyl)-1H-pyrrol-2-yl]pyridin-4-yl}oxy)phenyl]-3-(2-fluoro-5-methylphenyl)urea] |
| 14 nM | 15 nM |  | Cc1cccc(NC(=O)Nc2ccc(Oc3ccnc(-c4cc(C(=O)NCCCN5CCC(O)CC5)c[nH]4)c3)cc2)c1 [Example 235, N-[3-(4-hydroxypiperidin-1-yl)propyl]-5-{4-[4-({[(3-methylphenyl)amino]carbonyl}amino)phenoxy]pyridin-2-yl}-1H-pyrrole-3-carboxamide] |
|  | 66 nM | 67 nM | COC(=O)CC[C@H](NC(=O)c1c[nH]c(-c2cc(Oc3cc(C(=O)Nc4cc(C)ccc4F)ccc3F)ccn2)c1)C(=O)O [Example 262, 2-[({5-[4-(2-fluoro-5-{[(2-fluoro-5-methylphenyl)amino]carbonyl}phenoxy)pyridin-2-yl]-1H-pyrrol-3-yl}carbonyl)amino]-5-methoxy-5-oxopentanoic acid] |
| 25 nM |  | 23 nM | Cc1ccoc1C(=O)Nc1cc(Oc2ccnc(-c3cc(C(=O)NCCCN4CCOCC4)c[nH]3)c2)ccc1F [Example 194, 5-(4-{4-fluoro-3-[(3-methyl-2-furoyl)amino]phenoxy}pyridin-2-yl)-N-(3-morpholin-4-ylpropyl)-1H-pyrrole-3-carboxamide] |
| 42 nM |  | 25 nM | Cc1ccoc1C(=O)Nc1cc(Oc2ccnc(-c3cc(C(=O)NCCCN4CCCCC4)c[nH]3)c2)ccc1F [Example 191, 5-(4-{4-fluoro-3-[(3-methyl-2-furoyl)amino]phenoxy}pyridin-2-yl)-N-(3-piperidin-1-ylpropyl)-1H-pyrrole-3-carboxamide] |
| 60 nM |  | 24 nM | COC(=O)CN(CCCNC(=O)c1c[nH]c(-c2cc(Oc3cc(C(=O)Nc4cc(C)ccc4F)ccc3F)ccn2)c1)CC(=O)OC [Example 178, dimethyl 2,2′-({3-[({5-[4-(2-fluoro-5-{[(2-fluoro-5-methylphenyl)amino]carbonyl}phenoxy)pyridin-2-yl]-1H-pyrrol-3-yl}carbonyl)amino]propyl}imino)diacetate] |
| 100 nM |  | 24 nM | Cc1ccc(F)c(NC(=O)c2ccc(F)c(Oc3ccnc(-c4cc(C(=O)NCCNC(=O)OC(C)(C)C)c[nH]4)c3)c2)c1 [Example 183, tert-butyl {2-[({5-[4-(2-fluoro-5-{[(2-fluoro-5-methylphenyl)amino]carbonyl}phenoxy)pyridin-2-yl]-1H-pyrrol-3-yl}carbonyl)amino]ethyl}carbamate] |
| 86 nM |  | 33 nM | Cc1ccc(F)c(NC(=O)c2ccc(F)c(Oc3ccnc(-c4cc(C(=O)NCCN)c[nH]4)c3)c2)c1 [Example 182, N-(2-aminoethyl)-5-[4-(2-fluoro-5-{[(2-fluoro-5-methylphenyl)amino]carbonyl}phenoxy)pyridin-2-yl]-1H-pyrrole-3-carboxamide] |
|  | 46 nM | 14 nM | CCNC(=O)CC[C@H](NC(=O)c1c[nH]c(-c2cc(Oc3ccc(NC(=O)Nc4cc(C)ccc4F)cc3)ccn2)c1)C(=O)NCC [Example 263, N,N′-diethyl-2-{[(5-{4-[4-({[(2-fluoro-5-methylphenyl)amino]carbonyl}amino)phenoxy]pyridin-2-yl}-1H-pyrrol-3-yl)carbonyl]amino}pentanediamide] |
| 50 nM |  | 21 nM | COC(=O)CN(CCNC(=O)c1c[nH]c(-c2cc(Oc3cc(C(=O)Nc4cc(C)ccc4F)ccc3F)ccn2)c1)CC(=O)OC [Example 179, dimethyl 2,2′-({2-[({5-[4-(2-fluoro-5-{[(2-fluoro-5-methylphenyl)amino]carbonyl}phenoxy)pyridin-2-yl]-1H-pyrrol-3-yl}carbonyl)amino]ethyl}imino)diacetate] |
| 11 nM |  | 9 nM | COCCOC(=O)c1c[nH]c(-c2cc(Oc3ccc(NC(=O)Nc4cc(C)ccc4F)c(F)c3)ccn2)c1 [Example 227, 2-methoxyethyl 5-{4-[3-fluoro-4-({[(2-fluoro-5-methylphenyl)amino]carbonyl}amino)phenoxy]pyridin-2-yl}-1H-pyrrole-3-carboxylate] |
